In US20220339291A1, “ANTIBODY-DRUG CONJUGATES THAT TARGET DLK1 AND USES THEREOF” (LegoChem Biosciences, Inc., priority 2019, published 2022):
Residue numbers refer to the chain shown, from its start. Like-named read-outs stand apart in the source and are kept apart here. Non-standard residues stand in square brackets, D forms with d. Residues, ends and D or L forms follow the SMILES beside them. Dolaproine = CO[C@@H]([C@@H]1CCCN1)[C@@H](C)C(=O)O; Dil = CC[C@H](C)[C@H](NC)[C@@H](CC(=O)O)OC; NMeV = CN[C@H](C(=O)O)C(C)C

Tests used:
[1] = tested on: MIA-PaCa-2-DLK1 over-expressing cell line; assay: In vitro cytotoxicity (cell proliferation inhibition, SRB dye), DLK1 over-expressing cells; format: cell-based, human; conditions: MIA-PaCa2 DLK1 positive
Protocol: (§1) The cancer cell line cell proliferation inhibition activity of the drugs stated in Table 3 below and the ADCs prepared in <Embodiment 3> above was measured. For this purpose, commercially available human pancreatic cancer cell line MIA-PaCa2 (DLK1 negative or normal) and MIA-PaCa-2-DLK1 over-expressing cell line were used. As the drug, MMAF-OMe was used as the ADC, and the ADCs of Table 2 were used. In a 96-well plate, each well was seeded with 4,000 to 5,000 of the respective cancer cell lines for the 72-hour treatment group, 2,000 to 3,000 cells for the 96-hour treatment group, and 800 to 1,000 cells for the 168-hour treatment group. After culturing for 24 hours, they were treated with the drug and ADC at a concentration of 0.0015 to 10.0 nM (serially diluted threefold). 72, 96 and 168 hours later, respectively, the number of live cells was measured using SRB (Sulforhodamine B) dye.

[2] = tested on: MIA-PaCa2 (DLK1 negative or normal); assay: In vitro cytotoxicity (cell proliferation inhibition, SRB dye), DLK1-negative cells; format: cell-based, human
Protocol: as §1

[3] = tested on: cells where DLK1 is overexpressed; conditions: confirmed in Korean Patent Application No. 10-2018-0107639; cited from earlier work
[4] = biological target: T1, DLK1 over-expressed on MIA-PaCa-2 cells (UniProt P80370 24-383, limits assumed); assay: cell-based or functional assay
T1 sequence (looked up): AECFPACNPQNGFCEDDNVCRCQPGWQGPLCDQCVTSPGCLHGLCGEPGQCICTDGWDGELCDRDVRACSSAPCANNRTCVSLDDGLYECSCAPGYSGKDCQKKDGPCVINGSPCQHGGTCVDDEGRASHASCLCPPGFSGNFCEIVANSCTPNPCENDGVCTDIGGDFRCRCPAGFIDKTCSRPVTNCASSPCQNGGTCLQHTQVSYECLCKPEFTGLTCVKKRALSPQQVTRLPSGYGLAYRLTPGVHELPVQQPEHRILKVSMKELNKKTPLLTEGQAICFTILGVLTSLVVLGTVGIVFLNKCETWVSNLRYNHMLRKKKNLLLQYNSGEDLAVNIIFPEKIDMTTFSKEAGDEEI

## CC[C@H](C)[C@@H]([C@@H](CC(=O)N1CCC[C@H]1[C@H](OC)[C@@H](C)C(=O)N[C@@H](Cc1ccccc1)C(=O)OC)OC)N(C)C(=O)[C@@H](NC(=O)[C@@H](NC)C(C)C)C(C)C [MMAF-OMe] (H-[NMeV]V[Dil][Dolaproine]F-OMe)
[1]; 72 hr treatment, read-out: IC50 MIA-PaCa2-DLK1 positive 72 hr
  IC50: 300 pM
[1]; 96 h treatment, read-out: IC50 MIA-PaCa2-DLK1 positive 96 h
  IC50: 130 pM
[1]; 168 hr treatment, read-out: IC50 MIA-PaCa2-DLK1 positive 168 hr
  IC50: 60 pM
[2]; 72 hr treatment, read-out: IC50 MIA-PaCa2-DLK1 negative 72 hr
  IC50: 410 pM
[2]; 96 h treatment, read-out: IC50 MIA-PaCa2-DLK1 negative 96 h
  IC50: 120 pM
[2]; 168 hr treatment, read-out: IC50 MIA-PaCa2-DLK1 negative 168 hr
  IC50: 120 pM

B1: 27F7: anti-DLK1 human monoclonal antibody, heavy chain SEQ ID NO. 109, light chain SEQ ID NO. 110 (antibody, V domains shown)
VH: QMQLVESGGGLVKPGGSLTLSCDATGFNFGSYYMNWVRQAPGKGLEWLAHISSTGRTIYYADSVKGRFTISRDNAKSSLDLQMNSLRAEDTAVYYCARDQGYPFGMDVWGHGTTVTVSS
VL: QLVLTQPSSVSGAPGQRVTISCTGSSSNIGAGYDVDWYQQLPGTAPKLLIYGNTNRPSGVPDRFSGSKSGTSASLAITGLQAEDDSDYYCQSYDSSLSAWVFGGGTKLTVL
[3]
  binding to cells where DLK1 is overexpressed: capable of binding to cells where DLK1 is overexpressed

B2: ADC6 (18A5 conjugated to Compound 6) (other)
VH: QVQLVQSGGAVVQPGHSLRLSCEASGFKFKDYGMHWVRQAPGKGLEWLAVISHDGRNKNYADSVKGRLTISRDNSKNTLSFQMNSLRAEDTAVYYCVRDWSYAFDIWGQGTLVTVSS
VL: DIQMTQSPSFLSASVGDRVNITCRASQDISRRLAWYQQKPGKAPKLLIYGAASLQSAVASRFSGSGSGTEFTLTISSLQPEDFANYYCQQIYTTPLTFGGGTKVEIK
[4]
  IC50 (nM), cell proliferation inhibition (SRB), MIA-PaCa2-DLK1 positive, 168 hr: 0.21 nM

B3: 18A5_AM_1A12: 18A5 mutant anti-DLK1 antibody, heavy chain SEQ ID NO. 127, light chain SEQ ID NO. 128 (antibody, V domains shown)
VH: B2 VH with A10G, H16G, E23A
VL: DIQMTQSPSFLSASVGDRVTITCRASHDISSSLAWYQQKSGKAPKLLIYSASNLKSGVPSRFSGSGSGTDFSLTISSLQPEDFATYYCQQSYTTVLTFGGGTKLEIK
[3]
  binding to cells where DLK1 is overexpressed: capable of binding to cells where DLK1 is overexpressed

B4: 18A5_LS_1A10: 18A5 mutant anti-DLK1 antibody, heavy chain SEQ ID NO. 101, light chain SEQ ID NO. 126 (antibody, V domains shown)
VH: B2 VH
VL: DIQMTQSPSSLSASLGDRVTITCRASQGISSALAWYQQKPGKAPKLLIYAASSLQSGVPSRFSGSGSGTDFTLTINSLQPEDFATYYCQQSYTTPLTFGGGTKVEIK
[3]
  binding to cells where DLK1 is overexpressed: capable of binding to cells where DLK1 is overexpressed

B5: 18A5: anti-DLK1 human monoclonal antibody, heavy chain SEQ ID NO. 101, light chain SEQ ID NO. 102 (antibody, V domains shown)
VH: B2 VH
VL: B2 VL
[3]
  binding to cells where DLK1 is overexpressed: capable of binding to cells where DLK1 is overexpressed
